# Results reported in US12295951B2, “Compounds for use in a method of treating or preventing neurological and/or psychiatric disorders” (The Beckley Foundation, priority 2019, dated 2025).
# Experiments:
# Old animals (rats) = experiment: Enriched environment test (LSD plus cognitive training) with novel object preference in old rats; type: in vivo, rat; details: 0.13 mg/kg for 1 day or 3 consecutive days, then enriched environment 6 days (3 h per day)
# Description: The potential of the test compound combined with a cognitive training to rescue cognitive functions (called “enriched environment”) was evaluated in old animals according to the experimental design depicted in FIG. 3A. More specifically, the enriched environment test was carried out as follows:
# Old animal (about 12-18 months) were administered with saline (control group) or 0.13 mg/kg of test compound (LSD) for 1 day or 3 consecutive days, followed by exposure to an enriched environment for 6 consecutive days (3 hours each day). The enriched environment used herein typically consists of card boxes with 8 different rooms, wherein it is possible to find a variety of objects such as PVC tubes, toilet paper cardboard tubes or wood objects so as to stimulate the exploratory behavior. The animals were allowed to explore the enriched environment freely in groups of 3 to 5 animals. The effects of the test compound followed by the enriched environment were analyzed using one-way ANOVA, followed by Tukey HSD. The statistical analyses were performed using open source programming language R (version 3.6.0). The Mann-Whitney U test was used to compare the performance of old animals exposed to the enriched environment to that of old animals treated with saline and unexposed to the enriched environment.
# [1] = system: brain-derived neurotrophic factor (BDNF); experiment: BDNF blood serum levels in healthy volunteers (ELISA); type: in vivo, human; details: for BDNF AUC levels compared to placebo / Peak BDNF levels: serum; for BDNF AUC levels compared to placebo: 0-6 h
# Description: The present double-blind placebo-controlled, within-subjects study aimed to investigate whether low doses (0, 5, 10, and 20 mcg) of LSD affect brain-derived neurotrophic factor (BDNF) blood levels in healthy volunteers. Blood samples were collected every two hours over a six-hour period, and BDNF levels were determined afterwards in blood serum.
# Twenty-four recreational psychedelic users were included in this study. Prior to inclusion, participants underwent medical screening including standard blood chemistry, hematology and urinalysis. Inclusion criteria were written informed consent; age 18-40 years; previous experience with a psychedelic drug, but not within the past three months; proficient knowledge of the English language; good physical health; free from psychotropic medication; BMI between 18-28 kg/m^2. Exclusion criteria were history of drug abuse or addiction as assessed using the DSM-IV criteria; history of psychiatric and neurological disorders; previous experience with serious side effects to psychedelic drugs (anxiety or panic attacks); cardiovascular abnormalities; hypertension; psychotic disorder in first-degree relatives; tobacco smoking (>20 cigarettes/day; excessive alcohol (>20 alcoholic consumptions/week); pregnancy or lactation.
# LSD doses used were 5, 10, and 20 mcg LSD base. LSD doses were dissolved in ethanol (96% Vol) resulting in a 1 mL volume and the placebo solution consisted of 1 mL of ethanol only. Test days were scheduled with a minimum of five days in between doses. A test day started at 9:00 AM with a screen for the presence of drugs of abuse in urine (THC/opiates/cocaine/amphetamines/methamphetamines), and alcohol in breath. Women were submitted to a urine pregnancy test. When tests were negative, a venous catheter was placed to draw blood and LSD or placebo was administered orally at 10:00 AM. The study was conducted according to the code of ethics on human experimentation established by the declaration of Helsinki (1964) and the World Medical Association (2013).
# Blood samples were taken at −0.5 h, +2 h, +4 h and +6 h relative to drug administration; samples were centrifuged, and serum was transferred into a clean tube and frozen subsequently at −20° C. until analysis. BDNF determination was assessed using an ELISA kit (Biosensis Mature BDNF Rapid ELISA kit: human, mouse, rat; Thebarton, Australia) as described by Akinomoto et al. in Behavioural Brain Research 2019, 359, 342-352.
# Therefore, only complete within-subjects (WS) cases entered analyses, using the statistical program SPSS (version 25.0). Non-parametric bootstrapped paired-samples t-tests with trapezoidal calculated AUC's as dependent variable were used for 5 mcg (N=10), 10 mcg (N=9), and 20 mcg (N=8), and corresponding placebo. Furthermore, LSD-placebo contrasts were examined using BDNF serum levels at 0 h, +2 h, +4 h and +6 h after dose administration using non-parametric bootstrapped paired samples t-tests. Lastly, to examine time effects per dose, non-parametric bootstrapped repeated measures ANOVA (0 h, +2 h, +4 h, and +6 h) was used, with subsequent non-parametric bootstrapped paired samples t-tests.
# healthy human subjects = experiment: Two-dimensional visuospatial location (memory) task in humans; type: in vivo; details: single oral dose 50 μg (one subject 67.5 μg), final recall about 24 h after learning
# Description: The effects of the test compound (LSD) on cognitive functions in humans—e.g. memory, learning capacity—were investigated by means of a two-dimensional (2D) visuospatial location task in accordance with the experimental design depicted in FIG. 4A. Specifically, the visuospatial location task was carried out as follows:
# Thirteen healthy human subjects learned the locations of 15 card pairs taking the test compound (LSD) or placebo in a two-run cross-over open-label design separated by two weeks. Seven subjects received 50 μg of test compound (orally) in the first run and placebo in the second run of the test. Six subjects received placebo in the first run and 50 μg of test compound (orally) in the second run of the test, except for one subject who received 67.5 μg of test compound in the second run. […]
# For the two experimental runs, two parallel versions (versions A and B, respectively) of the task (matrix), each showing different pictures (card pairs) at different locations, were used. […] About 24 hours after the learning session, final recall of the memory task was evaluated in a single recall run (recall task). […] The percentage of correctly recalled card locations at final recall relative to the number of correct card locations during the last immediate recall run at learning was determined as the memory performance. […]
# Wistar Rats = experiment: Novel object preference test in rats; type: in vivo, rat; details: for novel object preference: tested days after administration
# Description: The effects of the test compound on cognitive functions in rodents, in particular on memory and learning capacity, were investigated using a novel object preference test (sometimes called “novel object recognition task”) according to the experimental design depicted in FIG. 1A. More specifically, the novel object preference test was carried out as follows:
# Wistar Rats (outbred albino rats; Janvier Labs) sorted in different age groups, i.e. young (about 2 months), adult (about 9 months) and old (about 12-18 months), were administered with a saline solution (sodium chloride; 0.9% in water) or an aqueous solution of the test compound (LSD) by intraperitoneal injection (dose: 0.13 mg/kg).
# Before the injection the animals were housed with other animals, and after the injection of the saline or test compound the animals were housed individually. For ten hours following the administration, the animals were video-recorded and stayed alone during the acute effects of the test compound (or saline). Then, the animals were allowed to recover for a period of 3 or 9 days.
# After recovery, the animals were individually placed in an experiment arena (45×45×45 cm) once a day for 10 minutes over a period of 3 days (acclimatization session). The experiment arena as used herein typically includes two 3D printed bases located on the arena's floor 10 cm apart from each other, which are intended for mounting and fixing the test objects. However, said bases are empty during the acclimatization session.
# Then, the 3D printed bases were mounted with the same number (i.e. 2) and type of objects (identical LEGO™ pieces each having 12 edges and 12 vertices). The animals were individually placed in the experiment arena and trained for 7 minutes (training session). At the onset of the training session, the animals were individually placed facing the same wall of the arena, with their backs to the objects.
# The animals were removed from the arena and allowed to rest for 30 minutes. In the meantime, one of the objects was replaced by a new object having the same dimensions (height and base) as the previous object but a different shape (LEGO™ piece, 14 edges and 14 vertices). The animals were individually placed in the experiment arena for 3 minutes, and their preference for the novel object was evaluated by determining the time spent by the respective animals to explore the novel object (test session; FIG. 1B). At the onset of the test, the animals were individually placed facing the same wall of the arena, with their backs to the objects in a similar manner as during the training session.
structure (smiles),measurement,setting,value
"CCN(CC)C(=O)[C@@H]1C=C2c3cccc4[nH]cc(c34)C[C@H]2N(C)C1 [LSD, (D)-lysergic acid diethylamide]",cognitive functions / novel object preference vs control group,Old animals (rats),significant enhancement
same,cognitive functions / novel object preference vs control group,Old animals (rats); listed as test compound,significant increase
same,BDNF AUC levels compared to placebo,"[1]; 5 mcg LSD oral, Z=−2.29, p=0.02",significantly increased
same,Peak BDNF levels,"[1]; 5 mcg LSD, peak at four hours after administration",8.95 ng/mL
same,BDNF AUC levels compared to placebo,"[1]; 10 mcg LSD oral, Z=−2.67, p<0.01",significantly increased
same,Peak BDNF levels,"[1]; 10 mcg LSD, peak at six hours after administration",8.28 ng/mL
same,BDNF AUC levels compared to placebo,"[1]; 20 mcg LSD oral, Z=−2.52, p<0.01",significantly increased
same,BDNF levels compared to placebo,"[1]; +4 h after 5 mcg LSD, Z=−2.80, p<0.01",higher
same,BDNF levels compared to placebo,"[1]; +4 h after 10 mcg LSD, Z=−1.95, p=0.05",higher
same,BDNF levels compared to placebo,"[1]; +6 h after 5 mcg LSD, Z=−2.29, p<0.01",higher
same,BDNF levels compared to placebo,"[1]; +6 h after 20 mcg LSD, Z=−2.52, p=0.01",higher
same,performance in the 2D visuospatial location task vs placebo,healthy human subjects,significantly improved
same,performance in the 2D visuospatial location task vs placebo,healthy human subjects; listed as test compound,significantly increased
same,novel object preference,"Wistar Rats; adult rats (about 9 months), 0.13 mg/kg i.p., saline baseline about 40%",about 60%
same,novel object preference (effect vs saline),"Wistar Rats; adult rats, FIG. 2",significantly increased
same,novel object preference (effect vs saline),"Wistar Rats; old rats (about 12-18 months), 0.13 mg/kg i.p.",not significant
same,novel object preference,"Wistar Rats; young rats (about 2 months), 0.13 mg/kg i.p., saline baseline about 60%",about 80%
same,novel object preference (effect vs saline),"Wistar Rats; young rats, FIG. 2",significantly increased
